Assay results published in US20220031680A1, “Donecopride As Neuroprotective Agent In the Treatment of Neurodegenerative Diseases” (priority 2018, published 2022).
Several values for one entry are separate records, joined by “and”; a condition that tells them apart may be missing. Identical values can stand only once.

Key:
[1] = system: GFAP; experiment: Astrogliosis (GFAP staining) in 5×FAD mouse brain; assay type: in vivo; conditions: 1 mg/kg twice a week for 3 months; for GFAP staining in frontal cortex or hippocampus: compared to controls; for decrease of GFAP staining in entorhinal brain slices: compared to vehicle
Protocol: 5×FAD mice received chronic treatments with drugs or vehicle according to 2 different protocols. In each experiment, drugs or vehicle solution were administered i.p. twice a week (1 mg/kg). In “Protocol 1”, mice (n=6-7 mice per group) were treated with compounds for two months, from 2 to 4 months of age. In “Protocol 2”, mice (n=7) were treated with compounds for three months, from 1 month to 4 months of age. At the end of each protocol, mice were anesthetized with a mixture of 100 mg/kg ketamine and 10 mg/kg xylazine in saline solution and perfused transcardially with PBS. Brains were quickly isolated on ice, the olfactory bulbs and cerebellum removed and the two hemispheres divided. One hemisphere was frozen on dry ice and stored at −80° C. for biochemical analysis, while the other was post-fixed in 4% PFA for immunohistochemistry (IHC).
Thirty-micrometer-thick sections were cut using a vibratome (Microm HM 650V, Thermo Scientific, Saint Herblain, France) and stored in cryoprotectant medium at −20° C. For the labeling of amyloid plaques, free-floating tissue sections of frontal cortex, hippocampus and entorhinal cortex (coordinates from the bregma: frontal cortex=1.98 mm, hippocampus=−1.94 mm, entorhinal cortex=−3.08 mm) were extensively washed in PBS and then incubated in blocking solution (PBS; 3% BSA; 0.1% Triton X-100) for 1 h. Sections were stained with Hoechst dye (1:1000, Life Technologies, Saint Aubin, France) for 15 minutes to detect cell nuclei and then with freshly prepared thioflavin T solution (#T3516-5G, Sigma-Aldrich) (final concentration: 0.01 mg/ml in blocking buffer) for 15 minutes. After washing in 70% ethanol for 5 minutes, samples were mounted on poly-lysine slides with coverslips. For GFAP (glial fibrillary acidic protein) staining, free-floating brain sections were blocked as before and incubated with polyclonal rabbit anti-GFAP (1:1000, Z0334, Dako, Les Ullis, France) at 4° C. overnight. After thioflavin T staining and washing with 70% ethanol, the secondary Alexafluor 594 goat anti-rabbit antibody (1:1000, A11012, Life Technologies) was added for 2 h. PBS washes and mounting were performed as described before.
Images were acquired with an Axiolmager Z1 microscope (Carl Zeiss S.A.S., Marly le Roi, France). Analysis of thioflavin T staining was performed blindly and data are presented as the mean number of particles per mm^2 in two to three tissue sections from the same brain area/animal (Image J software). GFAP expression was quantified using Image J software and results are expressed as area fractions.
28 female 5×FAD mice (C57BL/6J genetic background) were used in this study. Mice received vehicle or compounds (1 mg/kg) i.p., twice a week for three months, from 1 to 4 months of age.

[2] = system: rat primary cortical neurons after glutamate injury; experiment: Survival and neurite network of primary cortical neurons after glutamate injury; assay type: cell-based; conditions: glutamate 20 μM 20 min; for concentrations significantly protecting cortical neurons from death: compound 1 h before and 48 h after; for concentration of maximal effect on neurite network: cortical neurons
Protocol: The present study assesses the neuroprotective effect of MR36014 and MR33583 (at 4 concentrations) in rat primary cortical neurons after glutamate injury. The test compounds were pre-incubated for 1 hour before glutamate application (20 μM for 20 min). The neuroprotective effect (survival and neurite network) of test compounds were investigated.
Rat cortical neurons were cultured as described by Callizot et al. (2013) J. Neurosci. Res. 91:706-716. Pregnant female rat (Wistar) of 15 days of gestation were killed using a deep anesthesia with CO2 chamber and a cervical dislocation. Briefly, fetuses were collected and immediately placed in ice-cold L15 Leibovitz medium with a 2% penicillin (10,000 U/mL) and streptomycin (10 mg/mL) solution (PS) and 1% bovine serum albumin (BSA). Cortex were treated for 20 min at 37° C. with a trypsin-EDTA solution at a final concentration of 0.05% trypsin and 0.02% EDTA. The dissociation was stopped by addition of Dulbecco's modified Eagle's medium (DMEM) with 4.5 g/l of glucose, containing DNAse I grade II (final concentration 0.5 mg/ml) and 10% fetal calf serum (FCS). Cells were mechanically dissociated by three forced passages through the tip of a 10-ml pipette. Cells were then centrifuged at 515×g for 10 min at 4° C. The supernatant was discarded, and the pellet was resuspended in a defined culture medium consisting of Neurobasal medium with a 2% solution of B27 supplement, 2 mmol/I L-glutamine, 2% PS solution, and 10 ng/ml brain-derived neurotrophic factor (BDNF). Viable cells were counted in a Neubauer cytometer, using the trypan blue exclusion test.
The cells were seeded at a density of 25,000 per well in 96-well plates precoated with poly-L-lysine and were cultured at 37° C. in an air (95%)-CO2 (5%) incubator.
Pre-incubation: On day 13 of culture, the compounds were dissolved in the culture medium and pre-incubated with primary cortical neurons for 1 hour, before glutamate exposure.
Injury: 1 hour after test compound incubation, glutamate was added to a final concentration of 20 μM diluted in control medium still in presence of the test compounds for 20 min. After 20 min, glutamate was washed out and fresh culture medium with the test compounds were added for additional 48 hours.
Test compounds were tested in 96-well plate (n=6 culture wells per condition). The following conditions were assessed: […]
The following read-outs will be investigated: • The total neuron survival (MAP-2 positive, number), (data will be expressed into mean number of neurons of 30 pictures per well). • The total neurite network (MAP-2 in μm), (data will be expressed into mean of neurons of 30 pictures per well).

| Compound | GFAP staining in frontal cortex or hippocampus [1] | decrease of GFAP staining in entorhinal brain slices [1] | concentrations significantly protecting cortical neurons from death [2] | concentration of maximal effect on neurite network [2] |
| --- | --- | --- | --- | --- |
| COc1cc(N)c(F)cc1C(=O)CCC1CCN(CC2CCCCC2)CC1 [Flucopride] | not significantly different | 51±5% | – | – |
| COc1cc(N)c(F)cc1C(=O)CCC1CCN(CC2CCCCCC2)CC1 [MR36014] | – | – | 1 nM | 1 nM |
| COc1cc(N)c(Cl)cc1C(=O)CCC1CCN(CC2CCCCC2)CC1 [Donecopride] | not significantly different | 54±10% | – | – |
| COc1cc(N)c(F)cc1C(=O)CCC1CCN(CC2CCCC2)CC1 [MR33583] | – | – | 50 nM and 100 nM | 50 nM |
